In patent EP0774455A1, “Excitatory amino acid receptor antagonists” (ELI LILLY AND COMPANY, priority 1995, dated 1997):

Assays:
mouse [1] = experiment: mouse conditioned active avoidance response model; type: in vivo
From the text: (Pfeiffer & Jenney, Ann. N.Y. Acad. Sci., 66:[…], 1957; Maffii, J. Pharm. Pharmacol., 11: 129-139, 1959; Cook & Weidley, Ann; N.Y. Acad. Sci., 66: […], 1957; Janke, Handbook of Experimental Pharmacology, Vol. 55/I, New York: Plenum Press, 1978).

mouse [2] = experiment: mouse elevated plus maze model; type: in vivo
[3] = tested on: metabotropic glutamate receptors; experiment: selective displacement of 1S,3R-ACPD-sensitive [3H]glutamate binding to rat brain cell membranes (crude membranes of rat forebrain)
Experimental: The binding of [^3H]glutamate was conducted with crude membranes of rat forebrain as described by Schoepp and True. Schoepp and True, Neuroscience Lett., 145, 100-104 (1992) and Wright et al., J. Neurochemisty 63: 938-945 (1994).

In the case of `N[C@@]1(C(=O)O)[C@H](Cc2ccc(F)c(F)c2F)C[C@H]2[C@H](C(=O)O)[C@H]21` (racemic) [Example 25, 1SR,2SR,3SR,5RS,6SR-2-Amino-3-((2,3,4-trifluoro)-benzyl)bicyclo[3.1.0]hexane-2,6-dicarboxylic acid], the neuroleptic properties (mouse [1]) is reported as “neuroleptic properties”.
`Cc1cccc(C[C@@H]2C[C@H]3[C@H](C(=O)O)[C@H]3[C@]2(N)C(=O)O)c1` (racemic) [Example 4, 1SR,2SR,3SR,5RS,6SR-Amino-3-((3-methyl)benzyl)bicyclo[3.1.0]hexane-2,6-dicarboxylic acid] was tested, and the anxiolytic effect (mouse [2]) was “anxiolytic effect”.
In the case of `NC1(C(=O)O)C(CCCc2ccccc2)CC2C(C(=O)O)C21` (stereo not drawn) [Example 1, Mixture of 1SR,2SR,3RS,5RS,6SR-2-amino-3-(3-phenylpropyl)bicyclo[3.1.0]-hexane-2,6-dicarboxylic acid and 1SR, 2RS, 3RS, 5RS, 6SR-2-amino-3-(3-phenylpropyl)bicyclo[3.1.0]hexane-2,6-dicarboxylic acid], the IC50 [3] is reported as 320 nM.
